According to a melting point compilation (Tetko et al.):

With `CCCCSc1sc(C(=O)OCC)c2c1C(=O)CCC2` the melting point was 70 to 73 °C.
For `CC(C)NC(=S)NN`, the melting point was 96 to 97 °C.
Molecule `CC(=O)N1C(=O)/C(=C/c2ccccc2)c2cc3c(cc21)N(C(C)=O)C(=O)/C3=C/c1ccccc1` has a melting point of 256 °C.
For `CC(=O)Nc1ccccc1/C=C/c1cc(/C=C/c2ccccc2)c([N+](=O)[O-])cc1[N+](=O)[O-]`, the melting point was 265 °C.
For `Fc1c(F)c(F)c(P(c2ccccc2)c2ccccc2)c(F)c1F`, the melting point was 71 °C.
`CC(C)CCCCCO` gave a melting point of -106 °C.
`CCCCCCCCCCCCCCCCCCN=C=O` gave a melting point of 20 °C.
`O=S(=O)(Cl)c1cccc2nonc12` gave a melting point of 77 to 78 °C.
`CCOC(=O)C(C(=O)OCC)C(C(=O)OCC)C(=O)OCC` gave a melting point of 77 °C.
In the case of `Nc1ccccc1S`, the melting point is reported as 26 °C.
With `NC(=S)Nc1ccc(C(=O)O)cc1` the melting point was 255 °C.
Molecule `O=CC1=C(Cl)c2cc(F)ccc2OC1` has a melting point of 84 to 86 °C.
Molecule `CCOC(=O)C(F)(F)F` has a melting point of -78 °C.
`CN(C)C(C)(C)C` gave a melting point of -90 °C.
In the case of `CN1C2CC3CC1C(O3)C2O` (configuration not stated), the melting point is reported as 108 °C.
For `CCCCCCCCCCOc1ccc(C=O)cc1OCCCCCCCCCC`, the melting point was 61 to 66 °C.
Work on `CCCCCCCCCCCCCCCCCC(=O)OC(=O)CCCCCCCCCCCCCCCCC` yielded a melting point of 72 °C.
`CN1CC(C(=O)O)CC1=O` (configuration not stated) gave a melting point of 152 °C.
With `CCOC(=O)c1[nH]nc(C)c1C(=O)OCC` the melting point was 98 to 99 °C.
With `CCCCCCCCCCCCN1CC(C(=O)O)CC1=O` (configuration not stated) the melting point was 39 °C.
Molecule `CS(=O)(=O)c1ccc(O)cc1` has a melting point of 93 °C.
Molecule `COc1ccccc1NC(=O)C(C(F)(F)F)C(F)(F)F` has a melting point of 163 °C.
`O=Cc1cn(Cc2ccccc2)c2ccccc12` gave a melting point of 108 to 110 °C.
For `COC(=O)C1CCCc2c1[nH]c1ccc(OC)cc21` (configuration not stated), the melting point was 92 °C.
Molecule `CC(C)c1nc2ccccc2[nH]1` has a melting point of 235 °C.
Molecule `O=C(C=Cc1ccccc1)C=Cc1ccccc1` has a melting point of 111 °C.
With `Nc1cc(Cl)c(C(F)(F)F)cc1[N+](=O)[O-]` the melting point was 113 to 114 °C.
`CC(C)(C)OC(=O)N1CCC(N)CC1` gave a melting point of 46 °C.
For `O=C(O)c1nnn(Cc2ccccc2)c1C(=O)O`, the melting point was 180 °C.
Molecule `O=C(Cc1ccccc1)c1cc2c(cc1Br)OCCO2` has a melting point of 142 to 144 °C.
Molecule `NC(Cn1ccc(=O)c(O)c1)C(=O)O` (configuration not stated) has a melting point of 228 °C.
Molecule `CCOC(=O)N(c1ccccc1)c1ccccc1` has a melting point of 72 °C.
With `NC(=S)C(N)=S` the melting point was 170 °C.
With `COC(=O)c1ccc(C(F)(F)F)cc1` the melting point was 14 °C.
Work on `Nc1cc(Cl)c(S(N)(=O)=O)cc1S(N)(=O)=O` yielded a melting point of 254 °C.
`O=C(O)c1ccccc1CSc1ccccc1` gave a melting point of 109 to 113 °C.
In the case of `O=C(O)c1cc(-c2ccco2)[nH]n1`, the melting point is reported as 220 °C.
Molecule `COc1ccc([N+](=O)[O-])c(Cl)n1` has a melting point of 78 to 80 °C.
Work on `CC(C(=O)O)C(=O)O` yielded a melting point of 129 to 136 °C.
With `OCC(F)(F)C(F)(F)C(F)(F)C(F)(F)C(F)(F)C(F)(F)C(F)(F)C(F)(F)C(F)(F)F` the melting point was 87 to 91 °C.
`O=C(O)c1ccccc1Nc1cccc(F)c1` gave a melting point of 158 to 163 °C.
With `N=C(N)S(=O)O` the melting point was 126 °C.
In the case of `Cc1cccc(C)c1NC(=O)CN(CC(=O)O)CC(=O)O`, the melting point is reported as 213 to 216 °C.
`CCCC(=O)c1ccccc1O` showed a melting point of 10 °C.
With `O=[N+]([O-])c1nc[nH]n1` the melting point was 212 to 214 °C.
For `O=C1c2cccc3cccc(c23)C(=O)N1O`, the melting point was 245 °C.
`CCC(=O)c1ccc(OCc2ccccc2)cc1` showed a melting point of 100 °C.
Work on `CCCCCCCCc1ccc(N)cc1` yielded a melting point of 20 °C.
With `COc1ccc2c(c1)CC1(CCC(O)(c3ccc(C(C)(C)C)cc3)CC1)C2O` (configuration not stated) the melting point was 102 to 106 °C.
In the case of `Cn1cncc1C=O`, the melting point is reported as 55 °C.
`FC(F)(F)CCl` showed a melting point of -106 °C.
`C[Si](Cn1cncn1)(c1ccc(F)cc1)c1ccc(F)cc1` gave a melting point of 54 °C.
For `OCc1cccc2cccc(CO)c12`, the melting point was 155 to 158 °C.
For `N#Cc1cc(Br)ccc1N`, the melting point was 93 to 98 °C.
`O=C(O)c1cccc(N2CCCC2)n1` gave a melting point of 134 to 136 °C.
For `O=C1OC2(Cc3ccccc31)Cc1ccccc12` (configuration not stated), the melting point was 88 °C.
In the case of `Cc1cc(-c2ccccc2)nc2cc3nc(-c4ccccc4)cc(C)c3cc12`, the melting point is reported as 284 to 285 °C.
In the case of `Fc1ccc2nc(Cl)sc2c1`, the melting point is reported as 91 °C.
With `Cc1ccc(S(=O)(=O)CCO)cc1` the melting point was 54 to 58 °C.
In the case of `O=C1N=NC(=O)c2cc3c(cc21)CCC3`, the melting point is reported as 310 °C.
Work on `CCOC(=O)c1cnc(N)nc1C` yielded a melting point of 224 to 225 °C.
`O=C(O)C1CCC(c2ccccc2)CC1C(=O)O` (configuration not stated) showed a melting point of 185 to 190 °C.
In the case of `O=[N+]([O-])c1cccc(-c2nnc3n2NC(c2ccccc2)S3)c1` (configuration not stated), the melting point is reported as 205 °C.
For `Cn1ccc(-c2ccc(C(=O)O)cc2)n1`, the melting point was 240 to 242 °C.
With `O=C1OC(c2ccccc2)=NC1=Cc1ccco1` the melting point was 158 to 159 °C.
Molecule `Cc1nc(-c2ccc(C(=O)Cl)s2)cs1` has a melting point of 108 to 112 °C.
For `O=C(Cc1ccccc1[N+](=O)[O-])c1ccccc1[N+](=O)[O-]`, the melting point was 166 °C.
For `Cc1cc(Cl)nnc1Cl`, the melting point was 87 °C.
With `CC1(C)CCCCC1=O` the melting point was -20.5 °C.
Work on `CCN(CC)CCNc1ccc(C)c2sc3ccccc3c(=O)c12` yielded a melting point of 64.5 °C.
In the case of `COc1c(C(C)C)oc2cc3oc(=O)ccc3cc12`, the melting point is reported as 85 °C.
With `O=C(O)COc1ccccc1O` the melting point was 128 °C.
`CC(CC(C)(C)C1CCCCC1)C1CCCCC1` (configuration not stated) gave a melting point of -30 °C.
`CC(=O)OC1CCC2(C)C(CC(=O)C3C2CC(OC(C)=O)C2(C)C(C(C)CCC(=O)O)CCC32)C1` (configuration not stated) gave a melting point of 105 to 107 °C.
With `CCN(C)CC` the melting point was -196 °C.
`CC1=Cc2ccccc2C1` showed a melting point of 80 °C.
For `Oc1ccc(Cl)c(C(F)(F)F)c1`, the melting point was 44 °C.
`Nc1nc(O)nc2c1cnn2CCO` showed a melting point of 305 to 310 °C.
`O=C(Nc1ccc2nn(C3CCCCC3)nc2c1)c1ccccc1` showed a melting point of 212 °C.
In the case of `NC(=O)C=CC(F)(F)F`, the melting point is reported as 147 to 150 °C.
In the case of `COc1ccc2c(c1)CCc1c-2[nH]c2ccc(OC)cc12`, the melting point is reported as 194 to 196 °C.
For `CNCc1ccc(-c2cccs2)nc1`, the melting point was 65.5 to 66.5 °C.
Work on `C=CCN=C=S` yielded a melting point of -80 °C.
For `N#CC(C(N)=O)=C(SCc1ccccc1)SCc1ccccc1`, the melting point was 104 °C.
In the case of `COc1c(C#N)cc(C)c2c1CCC2`, the melting point is reported as 62 to 63 °C.
In the case of `CC(=O)OC12COC1CC(O)C1(C)C(=O)C(O)C3=C(C)C(O)CC(O)(C(OC(=O)c4ccccc4)C21)C3(C)C` (configuration not stated), the melting point is reported as 231 to 236 °C.
Work on `O=C(O)c1cc2ccccc2cc1C(=O)O` yielded a melting point of 238 °C.
`CC=Cc1ccc(OCC)c(O)c1` gave a melting point of 87 °C.
With `CCOC(=O)CCCCCCCCCCCCCCCCC(=O)OCC` the melting point was 54.5 °C.
Molecule `Fc1cc(Br)c(I)c(Br)c1` has a melting point of 134 to 137 °C.
In the case of `O=C1/C(=C/c2ccccc2O)SC(=S)N1CN1CCOCC1`, the melting point is reported as 166 °C.
With `CCN(CC)c1cccc(O)c1` the melting point was 78 °C.
Work on `O=C(Oc1cccc2cccnc12)c1ccccc1` yielded a melting point of 119 °C.
`N#CC(=CNc1ccccn1)C(=O)c1ccccc1` showed a melting point of 153 to 154 °C.
Molecule `Clc1ccc(C2(Cn3cncn3)CC(Br)CO2)c(Cl)c1` (configuration not stated) has a melting point of 84 °C.
Work on `NC(=S)c1ccccc1F` yielded a melting point of 80 to 84 °C.
For `CC(=O)Oc1c[nH]c2ccccc12`, the melting point was 129 °C.
`Clc1cccc2c(Cl)cccc12` showed a melting point of 107 °C.
In the case of `O=C(Cn1cncn1)c1ccc(F)cc1F`, the melting point is reported as 105 °C.
`CC(C)CC(N)CC(=O)O` (configuration not stated) showed a melting point of 249 to 250 °C.
With `O=C1C(C(O)c2ccccc2Cl)C(C(F)(F)F)=NN1c1ccccc1` (configuration not stated) the melting point was 251 °C.
In the case of `FC(F)(F)C(F)(F)C(F)(F)C(F)(F)C(F)(F)C(F)(F)C(F)(F)C(F)(F)C(F)(F)F`, the melting point is reported as -16 °C.
`Cc1cccc2ncccc12` gave a melting point of 19 °C.
In the case of `COc1cc(N)c2ncccc2c1`, the melting point is reported as 52 °C.
With `O=C(O)CS(=O)(=O)C=Cc1ccccc1` the melting point was 151 to 154 °C.
In the case of `CC(=O)N1C(=O)[C@@](O)(c2coc3ccccc23)c2ccccc21`, the melting point is reported as 110 °C.
In the case of `NCCSc1cc(C(F)(F)F)nc2ccccc12`, the melting point is reported as 97 to 99 °C.
For `C[Si](C)(O)c1ccc([Si](C)(C)O)cc1`, the melting point was 135 °C.
Molecule `CCOC(=O)C12C(c3cc(Cl)ccc3OP1(=O)OCC)C1(C(=O)OCC)C2c2cc(Cl)ccc2OP1(=O)OCC` (configuration not stated) has a melting point of 256 to 258 °C.
Molecule `CCCCC=CCCC=CCCCCCCOC(C)=O` has a melting point of 25 °C.
With `COc1ccc(C#N)c2ccccc12` the melting point was 102 °C.
In the case of `O=C(Oc1c(F)c(F)c(F)c(F)c1F)c1ccccc1N1CCOCC1`, the melting point is reported as 87 to 90 °C.
`O=C(O)C(O)c1ccccc1F` (configuration not stated) showed a melting point of 115 °C.
With `CC(=O)N(C)C(C)=O` the melting point was -25 °C.
In the case of `NC(=O)CC(N)C(=O)O` (configuration not stated), the melting point is reported as 234 °C.
With `CC1(C)c2ccccc2NC1C(=O)O` (configuration not stated) the melting point was 72 to 82 °C.
For `N=c1sc(C(=O)c2cccs2)nn1-c1ccccc1`, the melting point was 134 °C.
In the case of `FC(F)(F)C(F)(F)C(F)(F)C(F)(F)C(F)(F)C(F)(F)C(F)(F)C(F)(F)Br`, the melting point is reported as < 25 °C.
Work on `N#Cc1cccc2c1-c1ccccc1C2` yielded a melting point of 77 to 79 °C.
With `O=[N+]([O-])c1ccc(Sc2ccccc2)cc1` the melting point was 56 °C.
In the case of `Cc1ccccc1OP(=O)(Oc1ccccc1C)Oc1ccccc1C`, the melting point is reported as -25 °C.
In the case of `OCc1ccc(-c2cncnc2)cc1`, the melting point is reported as 127 to 130 °C.
With `CC(N)Cc1ccc(O)cc1` (configuration not stated) the melting point was 126 °C.
Molecule `FC(F)(F)C(F)(Br)C(F)(F)Br` (configuration not stated) has a melting point of -95 °C.
Work on `Clc1cccc2cccnc12` yielded a melting point of -20 °C.
With `CCCCCCCCCCCCCCCCC(=O)OC` the melting point was 30 °C.
For `CC(C)N(C(=O)C(C(F)(F)F)C(F)(F)F)C(C)C`, the melting point was 53 °C.
For `CCOC(=O)c1c[nH]c2c(OC(F)(F)F)cccc2c1=O`, the melting point was 235 to 240 °C.
`CCCCCCCCOc1ccc(NC(=O)c2ccc(C)cc2)cc1` gave a melting point of 140 to 142 °C.
With `CC(C)(C)c1cc(CC#N)cc(C(C)(C)C)c1O` the melting point was 111 °C.
Molecule `O=C(O)c1cccc(S(=O)(=O)Nc2ccccc2)c1` has a melting point of 236 °C.
Molecule `OC12CCCCCC1c1ccccc12` (configuration not stated) has a melting point of 100 °C.
